From patent publication US4931450A, “Amino acid derivatives” (Novo Industri A/S, priority 1986, dated 1990)
Structures can show the parent of a compound that is named as a salt. Where two headings read alike, the source gives them in different places.

Key:
[1] = system: DBA/2 mice (convulsions induced by loud noise; Rotarod); assay: Rotarod test versus convulsions induced by loud noise in DBA/2 mice (ratio ED50 Rotarod/ED50 tonic convulsions); type: in vivo, male DBA/2 mice; conditions: i.p., Rotarod test 25 min after injection, then 14 kHz tone at 111 dB for 30 sec
Procedure: The convulsions induced by loud noise in the DBA/2 strain of mice is regarded as a reliable model for evaluating anti-epileptic drug effects, cf. E. N. Petersen et al.: Psychopharmacol. 83 (1984), 240, and A. G. Chapman et al.: Arzmeim.Forsch. 10 (1984), 1261. The Rotarod and Traction tests were used to evaluate the sedative properties of the test drugs.
Male DBA/2 mice (8±1 g) were used in all experiments. The animals were pretrained on the Rotarod (6 rpm; rod diameter 2.5 cm) for 1 min. The compounds tested were injected intra-peritoneally. Twenty-five min, later the animals underwent a 2 min. test on the Rotarod. The number of failures to stay on the rod was counted. An error rate higher than 10 was assigned the maximum score of 10. Immediately after the Rotarod test, the animals were tested in a Traction test, cf. Psychopharmacol. above. In this test, the animal was required to maintain grasp on a thin rod (diameter 2.5 mm) with the forepaws for five sec. and, within this period of time, to show a traction response (grasping onto the rod with one of the hindlegs). The performance on the test was based on the absence or presence of the traction response with the 5 sec. test period. Finally, after the Traction test, the animals were individually placed in a chamber in which they were exposed for 30 sec. to a 14 kHz sinus tone at 111 dB. During this period of time, the following behaviours were noted: "wild running", clonic convulsions and death.
The compounds tested were dissolved in distilled water or suspended in 5% chremophore. The injection volume was 0.2 ml/mouse.
In table 2, below, the ratio ED50 Rotarod/ED50 tonic convulsions is given for the compounds tested. NO-05-0340 is R-N-(4-(2-methylphenyl)-4-(3-methyl-2-thienyl)but-3-en-1-yl)nipecotic acid and NO-05-0356 is R-N-(4-(N-methylpyrrol-2-yl)-4-phenylbut-3-en-1-yl)nipecotic acid.

GABA uptake = conditions: orally active; cited from earlier work
GABA-uptake = assay: In vitro GABA-uptake inhibition, essentially as described by Fjalland, 3H-GABA as substrate; type: biochemical
Procedure: GABA-uptake inhibition was measured essentially as described by Fjalland (Acta Pharmacol. et. Toxicol. (1978), 42, 73-76) using 25 mM of 3H-GABA as a substrate.

[2] = 3H-GABA substrate, two separate experiments, 3-5 concentrations of test compound, read-out: IC50
[3] = R3 nipecotic acid, read-out: in vitro test value

SMILES | IC50 (GABA-uptake; [2]) [nM] | other results
O=C(O)CC1CCN(CCC=C(c2ccccc2)c2ccccc2)C1 (stereo not drawn) [SK&F 100561, N-(4,4-diphenyl-3-butenyl)-β-homoproline, reference compound] | – | ratio ED50 Rotarod/ED50 tonic convulsions [1]: 7; GABA uptake inhibition, oral activity (GABA uptake): orally active inhibitors of GABA uptake
COc1cccc(C(=CCCN2CCC[C@@H](C(=O)O)C2)c2sccc2C)c1 [Example 18] | 56 | –
O=C(O)[C@@H]1CCCN(CCC=C(c2ccccc2)c2cccs2)C1 (mixture of isomers) [reference compound] | 236 | –
Cl.Cn1cccc1C(=CCCN1CCC[C@@H](C(=O)O)C1)c1ccccc1 [NO-05-0356, R-N-(4-(N-Methylpyrrol-2-yl)-4-phenylbut-3-en-1-yl)nipecotic acid hydrochloride] | 68 | ratio ED50 Rotarod/ED50 tonic convulsions [1]: 21
Cc1ccccc1C(=CCCN1CCC[C@@H](C(=O)O)C1)c1sccc1C [NO-05-0340, R-N-(4-(2-Methylphenyl)-4-(3-methyl-2-thienyl)but-3-en-1-yl)nipecotic acid] | 74 | ratio ED50 Rotarod/ED50 tonic convulsions [1]: 8; IC50 (GABA-uptake; [3]): 74 nM
O=C(O)C1=CCCN(CCC=C(c2ccccc2)c2ccccc2)C1 [SK&F 100330A, N-(4,4-diphenyl-3-butenyl)guvacine] | – | GABA uptake inhibition, oral activity (GABA uptake): orally active inhibitors of GABA uptake
O=C(O)C1CCCN(CCC=C(c2ccccc2)c2ccccc2)C1 (stereo not drawn) [SK&F 89976A, N-(4,4-diphenyl-3-butenyl)nipicotic acid, reference compound] | – | ratio ED50 Rotarod/ED50 tonic convulsions [1]: 5; GABA uptake inhibition, oral activity (GABA uptake): orally active inhibitors of GABA uptake
O=C(O)C1CCCN(CCC=C(c2ccccc2)c2cccs2)C1 (stereo not drawn) [SK&F 100604J, N-(4-sphenyl-4-(2-thienyl)-3-butenyl)nipecotic acid] | – | GABA uptake inhibition, oral activity (GABA uptake): orally active inhibitors of GABA uptake

The remaining compounds from weak to strong by IC50 (GABA-uptake; [2]), led by results:

IC50 (GABA-uptake; [2]) [nM] | SMILES | other results
470 | O=C(O)C1CCCN(CCC=C(c2ccccc2)c2cccs2)C1 (racemic) [reference compound] | IC50 (GABA-uptake; [3]): 470 nM
217 | Cc1ccsc1C(=CCCN1CCC[C@@H](C(=O)O)C1)c1ccccc1F [Example 24] | –
217 | O=C(O)C1=CCCN(CCC=C(c2ccccc2)c2cccs2)C1 (mixture of isomers) [phenyl, thien-2-yl, guvacine, (E/Z), reference compound] | –
190 | Cc1ccc(C(=CCCN2CCC[C@@H](C(=O)O)C2)c2sccc2C)c(C)c1 [Example 10, R-N-(4-(2,4-dimethylphenyl)-4-(3-methyl-2-thienyl)but-3-en-1-yl)nipecotic acid hydrochloride] | –
162 | CCn1cccc1C(=CCCN1CCC=C(C(=O)O)C1)c1ccccc1 [Example 59] | –
148 | Cc1cc(Cl)ccc1C(=CCCN1CCC[C@@H](C(=O)O)C1)c1cccn1C [Example 57] | –
126 | Cn1cccc1C(=CCCN1CCC=C(C(=O)O)C1)c1ccccc1 [NO-05-0387, N-(4-(N-Methylpyrrol-2-yl)-4-phenylbut-3-en-1-yl)guvacine hydrochloride] | –
124 | Cc1ccsc1C(=CCCN1CCC[C@@H](C(=O)O)C1)c1cccc(Cl)c1 (mixture of isomers) | –
117 | Cc1ccccc1C(=CCCN1CCC=C(C(=O)O)C1)c1sccc1C [Example 15] | –
104 | Cc1ccsc1C(=CCCN1CCC[C@@H](C(=O)O)C1)c1cccc(Cl)c1C [Example 49] | –
89 | Cc1cc(Cl)ccc1C(=CCCN1CCC[C@@H](C(=O)O)C1)c1sccc1C [Example 16] | –
85 | CCCn1cccc1C(=CCCN1CCC[C@@H](C(=O)O)C1)c1ccccc1C [Example 14] | –
49 | CCn1cccc1C(=CCCN1CCC[C@@H](C(=O)O)C1)c1ccccc1C [Example 58] | –
